One assay addresses T1, rat mGluR1 (Rattus norvegicus, UniProt P23385).
T1 construct: rat cerebellar membrane preparation was used; from tissue; host or cells: rat cerebellum (membrane preparation)
The assay is described as follows: MGluR1 receptor binding test ([3H]R214127 displacement, rat cerebellar membrane preparation). Conditions: rat mGluR1, [3H]R214127 3 nM; read-out: mGlu1 Ki. In outline:
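Rat cerebellar membranes with 3 nM [3H]R214127; nonspecific binding defined by 1 μM R214127. IC50 from displacement curves by nonlinear regression, converted to Ki by Cheng–Prusoff.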

A further assay deals with T2, rat mGluR5 (Rattus norvegicus, UniProt P31424).
T2 construct: Rat cerebro-cortical membrane preparation was used; from tissue; host or cells: rat cerebral cortex (membrane preparation)
T2 sequence (P31424 21-1203): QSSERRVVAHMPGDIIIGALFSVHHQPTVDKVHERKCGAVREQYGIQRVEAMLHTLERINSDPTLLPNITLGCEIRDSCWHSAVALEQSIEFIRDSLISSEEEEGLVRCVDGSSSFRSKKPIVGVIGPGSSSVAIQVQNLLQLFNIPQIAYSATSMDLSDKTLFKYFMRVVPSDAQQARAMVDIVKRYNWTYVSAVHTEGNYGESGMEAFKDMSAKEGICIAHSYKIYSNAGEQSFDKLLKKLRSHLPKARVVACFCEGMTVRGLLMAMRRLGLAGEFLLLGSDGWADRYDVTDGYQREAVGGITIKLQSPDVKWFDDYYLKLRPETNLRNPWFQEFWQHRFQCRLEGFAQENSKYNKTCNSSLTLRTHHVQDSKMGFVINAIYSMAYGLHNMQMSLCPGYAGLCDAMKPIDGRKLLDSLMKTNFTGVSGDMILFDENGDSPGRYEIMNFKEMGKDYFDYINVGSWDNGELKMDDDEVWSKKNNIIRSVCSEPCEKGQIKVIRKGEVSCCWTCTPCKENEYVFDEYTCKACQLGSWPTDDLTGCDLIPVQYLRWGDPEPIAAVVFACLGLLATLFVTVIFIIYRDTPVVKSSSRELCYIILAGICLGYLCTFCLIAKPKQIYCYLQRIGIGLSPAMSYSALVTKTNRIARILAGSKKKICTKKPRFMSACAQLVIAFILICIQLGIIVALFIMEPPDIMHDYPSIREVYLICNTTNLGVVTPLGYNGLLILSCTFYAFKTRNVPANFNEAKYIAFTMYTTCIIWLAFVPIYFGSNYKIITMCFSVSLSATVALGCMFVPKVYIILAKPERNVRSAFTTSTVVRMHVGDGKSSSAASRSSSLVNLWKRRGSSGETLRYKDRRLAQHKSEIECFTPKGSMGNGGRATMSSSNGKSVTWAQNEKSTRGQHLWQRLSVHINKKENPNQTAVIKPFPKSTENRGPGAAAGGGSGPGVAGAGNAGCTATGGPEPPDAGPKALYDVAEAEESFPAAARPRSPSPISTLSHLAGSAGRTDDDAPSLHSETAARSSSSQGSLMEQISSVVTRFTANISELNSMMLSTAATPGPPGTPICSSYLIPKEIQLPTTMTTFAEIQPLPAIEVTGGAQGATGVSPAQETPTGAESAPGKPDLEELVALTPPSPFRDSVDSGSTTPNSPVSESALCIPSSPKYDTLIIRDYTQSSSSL
The assay is described as follows: MGluR5 receptor binding test ([3H]-M-MPEP displacement, rat cerebro-cortical membrane preparation). Conditions: rat mGluR5, [3H]-M-MPEP 2 nM; read-out: mGlu5 Ki. The procedure:
Rat cerebro-cortical membrane preparation was used to determine the binding characteristics of reference compounds and novel compounds to the rat mGluR5. The A18 cell line expressing hmGluR5a (purchased from Euroscreen) was used to determine binding characteristics of the chemical compounds to the human mGluR5a receptor. [3H]-M-MPEP (2 nM) was used as radioligand. The nonspecific binding was determined in the presence of 10 μM M-MPEP.

Experimental findings from US8063220B2, “Sulfonyl-quinoline derivatives” (Richter Gedeon Nyrt., priority 2007, dated 2011) are described below.

As usually defined, the Ki is a measure of affinity in units of concentration, obtained from inhibition or displacement.

T1 sequence (P23385 19-1199): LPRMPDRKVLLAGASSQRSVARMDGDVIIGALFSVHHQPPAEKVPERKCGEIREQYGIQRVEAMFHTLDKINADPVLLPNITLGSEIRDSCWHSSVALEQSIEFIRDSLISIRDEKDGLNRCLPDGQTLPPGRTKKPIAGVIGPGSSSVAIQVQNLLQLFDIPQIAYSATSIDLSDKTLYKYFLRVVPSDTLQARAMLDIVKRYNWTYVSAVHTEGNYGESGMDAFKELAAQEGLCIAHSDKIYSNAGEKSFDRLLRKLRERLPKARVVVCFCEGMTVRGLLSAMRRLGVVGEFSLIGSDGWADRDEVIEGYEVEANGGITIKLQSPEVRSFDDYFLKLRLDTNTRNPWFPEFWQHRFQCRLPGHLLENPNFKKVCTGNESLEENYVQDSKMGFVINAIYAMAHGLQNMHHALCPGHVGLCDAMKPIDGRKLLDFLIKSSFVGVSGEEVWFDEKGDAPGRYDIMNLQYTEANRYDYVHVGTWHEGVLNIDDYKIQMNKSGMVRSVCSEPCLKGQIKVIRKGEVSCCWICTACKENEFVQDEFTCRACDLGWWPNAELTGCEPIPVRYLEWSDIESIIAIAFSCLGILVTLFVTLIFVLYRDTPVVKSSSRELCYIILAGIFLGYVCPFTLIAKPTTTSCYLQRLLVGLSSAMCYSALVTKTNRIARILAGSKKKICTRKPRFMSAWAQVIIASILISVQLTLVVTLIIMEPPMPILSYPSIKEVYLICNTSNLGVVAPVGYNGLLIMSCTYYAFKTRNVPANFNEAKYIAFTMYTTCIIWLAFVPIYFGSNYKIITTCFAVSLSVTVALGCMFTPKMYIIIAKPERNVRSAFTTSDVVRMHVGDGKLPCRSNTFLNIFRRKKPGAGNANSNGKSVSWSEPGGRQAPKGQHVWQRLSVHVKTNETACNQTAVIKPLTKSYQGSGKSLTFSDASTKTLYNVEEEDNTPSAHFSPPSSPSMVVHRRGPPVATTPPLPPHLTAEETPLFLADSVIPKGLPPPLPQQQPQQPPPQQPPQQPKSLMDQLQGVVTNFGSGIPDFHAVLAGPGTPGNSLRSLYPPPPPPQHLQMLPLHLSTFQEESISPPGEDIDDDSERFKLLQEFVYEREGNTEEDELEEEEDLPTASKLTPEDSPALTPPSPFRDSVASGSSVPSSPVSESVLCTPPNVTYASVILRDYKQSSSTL

With `O=S(=O)(c1ccc(F)c(Cl)c1)c1cnc2ccc(F)cc2c1-c1ccc(F)cc1` [Compound 155], the Ki on rat mGluR1 was 200 to 500 nM; on rat mGluR5, under 200 nM.
For `O=S(=O)(c1cc(Cl)cc(Cl)c1)c1cnc2cc(F)ccc2c1-c1cccc(Cl)c1` [Compound 156], in that order: 200 to 500 nM and under 200 nM.
As to `O=S(=O)(c1cc(Cl)cc(Cl)c1)c1cnc2cc(F)ccc2c1-c1ccc(Cl)cc1` [Compound 157], the Ki at rat mGluR1 is 200 to 500 nM; on rat mGluR5, under 200 nM.
For `O=S(=O)(c1cc(Cl)cc(Cl)c1)c1cnc2c(F)cccc2c1-c1cccc(Cl)c1` [Compound 158], in that order: 200 to 500 nM and under 200 nM.
In the same order, the values of `O=S(=O)(c1cc(Cl)cc(Cl)c1)c1cnc2c(F)cccc2c1-c1ccc(Cl)cc1` [Compound 159] are 200 to 500 nM and under 200 nM.
With `O=S(=O)(c1cc(Cl)cc(Cl)c1)c1cnc2ccc(F)cc2c1-c1cccc(Cl)c1` [Compound 160], the values for the Ki on rat mGluR1 and on rat mGluR5 were over 500 nM and under 200 nM, respectively.
Consider `O=S(=O)(c1cc(Cl)cc(Cl)c1)c1cnc2ccc(F)cc2c1-c1ccc(Cl)cc1` [Compound 161], for which the Ki on rat mGluR1 is over 500 nM; at rat mGluR5 it was under 200 nM.
In the case of `COc1ccc(S(=O)(=O)c2cnc3cc(F)ccc3c2-c2cccc(Cl)c2)cc1OC` [Compound 162], the Ki at rat mGluR1 and on rat mGluR5 was over 500 nM each time.
Turning to `COc1ccc(-c2c(S(=O)(=O)c3ccc(OC)cc3)cnc3ccc(F)cc23)cc1` [Compound 163], the Ki was over 500 nM on rat mGluR1 and under 200 nM at rat mGluR5.
In the same order, the values of `COc1ccc(S(=O)(=O)c2cnc3ccc(F)cc3c2-c2ccc(Cl)cc2)cc1OC` [Compound 164] are over 500 nM and over 500 nM.
In the same order, the values of `COc1ccc(S(=O)(=O)c2cnc3ccc(F)cc3c2-c2ccc(F)cc2)cc1Cl` [Compound 165] are over 500 nM and over 500 nM.
As for `O=S(=O)(c1cc(Cl)cc(Cl)c1)c1cnc2cc(Cl)ccc2c1-c1cccc(F)c1` [Compound 166], the values for the Ki on rat mGluR1 and on rat mGluR5 were over 500 nM and under 200 nM, respectively.
For `O=S(=O)(c1ccc(F)cc1)c1cnc2cc(Cl)ccc2c1-c1cccc(F)c1` [Compound 167], in that order: over 500 nM and under 200 nM.
For `O=S(=O)(c1cccc(F)c1)c1cnc2cc(Cl)ccc2c1-c1cccc(F)c1` [Compound 168], in that order: over 500 nM and under 200 nM.
For `O=S(=O)(c1cc(F)cc(F)c1)c1cnc2cc(Cl)ccc2c1-c1cccc(F)c1` [Compound 169], in that order: over 500 nM and under 200 nM.
Turning to `O=S(=O)(c1ccc(F)c(F)c1)c1cnc2cc(Cl)ccc2c1-c1cccc(F)c1` [Compound 170, 7-chloro-3-(3,4-difluoro-benzenesulfonyl)-4-(3-fluoro-phenyl)-quinoline], the Ki is over 500 nM on rat mGluR1 and under 200 nM on rat mGluR5.
As to `O=S(=O)(c1ccc(F)c(Cl)c1)c1cnc2cc(Cl)ccc2c1-c1cccc(F)c1` [Compound 171], the Ki at rat mGluR1 is over 500 nM; on rat mGluR5, under 200 nM.
`O=S(=O)(c1ccc(F)cc1)c1cnc2cc(Cl)ccc2c1-c1ccc(Cl)cc1` [Compound 172]: the Ki at rat mGluR1 is over 500 nM; on rat mGluR5, under 200 nM.
For `O=S(=O)(c1cccc(F)c1)c1cnc2cc(Cl)ccc2c1-c1ccc(Cl)cc1` [Compound 173], in that order: over 500 nM and under 200 nM.
Regarding `O=S(=O)(c1cc(F)cc(F)c1)c1cnc2cc(Cl)ccc2c1-c1ccc(Cl)cc1` [Compound 174], the Ki at rat mGluR1 is over 500 nM; at rat mGluR5 it was under 200 nM.
For the compound `O=S(=O)(c1ccc(F)c(F)c1)c1cnc2cc(Cl)ccc2c1-c1ccc(Cl)cc1` [Compound 175], the inhibition constant (Ki) at rat mGluR1 is over 500 nM; on rat mGluR5 it was under 200 nM.
`O=S(=O)(c1ccc(F)c(Cl)c1)c1cnc2cc(Cl)ccc2c1-c1ccc(Cl)cc1` [Compound 176]: the values for the Ki on rat mGluR1 and on rat mGluR5 were over 500 nM and under 200 nM, respectively.
For `N#Cc1cccc(S(=O)(=O)c2cnc3cc(Cl)ccc3c2-c2ccc(Cl)cc2)c1` [Compound 177], in that order: over 500 nM and under 200 nM.
On to `O=S(=O)(c1cc(Cl)cc(Cl)c1)c1cnc2cc(Cl)ccc2c1-c1ccc(F)cc1` [Compound 178], for which the Ki was over 500 nM on rat mGluR1 and under 200 nM on rat mGluR5.
For `O=S(=O)(c1ccc(F)cc1)c1cnc2cc(Cl)ccc2c1-c1ccc(F)cc1` [Compound 179], in that order: over 500 nM and under 200 nM.
In the same order, the values of `O=S(=O)(c1cccc(F)c1)c1cnc2cc(Cl)ccc2c1-c1ccc(F)cc1` [Compound 180] are over 500 nM and under 200 nM.
With `O=S(=O)(c1cc(F)cc(F)c1)c1cnc2cc(Cl)ccc2c1-c1ccc(F)cc1` [Compound 181], the Ki on rat mGluR1 is over 500 nM; on rat mGluR5 it was under 200 nM.
`O=S(=O)(c1ccc(F)c(F)c1)c1cnc2cc(Cl)ccc2c1-c1ccc(F)cc1` [Compound 182]: the inhibitory constant (Ki) at rat mGluR1 is over 500 nM; on rat mGluR5, under 200 nM.
In the same order, the values of `O=S(=O)(c1ccc(F)c(Cl)c1)c1cnc2cc(Cl)ccc2c1-c1ccc(F)cc1` [Compound 183] are over 500 nM and under 200 nM.
Turning to `O=S(=O)(c1ccc(Cl)cc1)c1cnc2c(Cl)cccc2c1-c1ccc(Cl)c(Cl)c1` [Compound 184], the Ki on rat mGluR1 and on rat mGluR5 was over 500 nM in each case.
As to `O=S(=O)(c1ccc(Cl)cc1)c1cnc2c(Cl)ccc(Cl)c2c1-c1cccc(Cl)c1` [Compound 185], the Ki on rat mGluR1 and on rat mGluR5 was over 500 nM each time.
Regarding `N#Cc1cc(F)cc(S(=O)(=O)c2cnc3cc(Cl)ccc3c2-c2ccc(F)cc2)c1` [Compound 186, 7-chloro-3-(3-cyano-5-fluoro-benzenesulfonyl)-4-(4-fluoro-phenyl)-quinoline], the inhibition constant Ki was over 500 nM at rat mGluR1 and under 200 nM at rat mGluR5.
As for `O=S(=O)(c1ccc(Cl)s1)c1cnc2cc(Cl)ccc2c1-c1ccc(F)cc1` [Compound 187], the inhibition constant Ki at rat mGluR1 was over 500 nM; at rat mGluR5, 200 to 500 nM.
In the same order, the values of `O=S(=O)(c1ccc(Cl)c(F)c1)c1cnc2cc(F)c(Cl)cc2c1-c1cccc(F)c1` [Compound 188] are over 500 nM and 200 to 500 nM.
Regarding `O=S(=O)(c1ccc(Cl)c(F)c1)c1cnc2cc(F)c(Cl)cc2c1-c1ccc(Cl)cc1` [Compound 189], the inhibitory constant (Ki) on rat mGluR1 was over 500 nM; at rat mGluR5, under 200 nM.
For the compound `O=S(=O)(c1ccc(Cl)c(F)c1)c1cnc2cc(F)c(Cl)cc2c1-c1ccc(F)cc1` [Compound 190], the figures for the inhibition constant Ki on rat mGluR1 and at rat mGluR5 were over 500 nM and under 200 nM, respectively.
`N#Cc1cccc(S(=O)(=O)c2cnc3cc(C#N)ccc3c2-c2ccc(Cl)cc2)c1` [Compound 191]: the figures for the inhibition constant (Ki) at rat mGluR1 and at rat mGluR5 were over 500 nM and 200 to 500 nM, respectively.
As for `N#Cc1ccc2c(-c3ccc(F)cc3)c(S(=O)(=O)c3ccc(F)c(F)c3)cnc2c1` [Compound 192], the inhibition constant (Ki) at rat mGluR1 and on rat mGluR5 was over 500 nM each time.
With `N#Cc1cccc(S(=O)(=O)c2cnc3cc(C#N)ccc3c2-c2ccc(F)cc2)c1` [Compound 193], the figures for the inhibitory constant (Ki) at rat mGluR1 and on rat mGluR5 were over 500 nM and 200 to 500 nM, respectively.
In the same order, the values of `O=S(=O)(c1ccc(F)c(Cl)c1)c1cnc2cc(F)c(Cl)cc2c1-c1ccccc1F` [Compound 194] are over 500 nM and over 500 nM.
